Data: the supplement of paper PMC10307832

Experiments:
Test in all cases: relative viability (nuclei count vs DMSO), 5 days (fraction); higher = more cells survive
BMX-IN-1 + Navitoclax = compound: C=CC(=O)Nc1cc(-n2c(=O)ccc3cnc4ccc(-c5ccc(NS(C)(=O)=O)cc5)cc4c32)ccc1C [BMX-IN-1] + CC1(C)CCC(c2ccc(Cl)cc2)=C(CN2CCN(c3ccc(C(=O)NS(=O)(=O)c4ccc(N[C@H](CCN5CCOCC5)CSc5ccccc5)c(S(=O)(=O)C(F)(F)F)c4)cc3)CC2)C1 [Navitoclax] (partner 0.5 µM)
Procedure, shortened: (§1)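 Each reported value is a median over duplicate plates. It expresses relative viability: treated-well nuclei count divided by vehicle-well nuclei count. Lung cancer cell lines in 1536-well plates were dosed by pin tool a day after seeding, alone with one drug or with a fixed anchor-drug dose plus five library-drug doses (not always all listed) in √10 steps, and nuclei were counted after 5 days.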

PAC-1 + Palbociclib = compound: C=CCc1cccc(/C=N/NC(=O)CN2CCN(Cc3ccccc3)CC2)c1O [PAC-1] + CC(=O)c1c(C)c2cnc(Nc3ccc(N4CCNCC4)cn3)nc2n(C2CCCC2)c1=O [Palbociclib] (partner 0.5 µM)
Procedure, shortened: as §1

PAC-1 + Decitabine = compound: C=CCc1cccc(/C=N/NC(=O)CN2CCN(Cc3ccccc3)CC2)c1O [PAC-1] + Nc1ncn([C@H]2C[C@H](O)[C@@H](CO)O2)c(=O)n1 [Decitabine] (partner 2 µM)
Procedure, shortened: as §1

BMX-IN-1 + Tozasertib = compound: C=CC(=O)Nc1cc(-n2c(=O)ccc3cnc4ccc(-c5ccc(NS(C)(=O)=O)cc5)cc4c32)ccc1C [BMX-IN-1] + Cc1cc(Nc2cc(N3CCN(C)CC3)nc(Sc3ccc(NC(=O)C4CC4)cc3)n2)n[nH]1 [Tozasertib] (partner 0.1 µM)
Procedure, shortened: as §1

PAC-1 + Alpelisib = compound: C=CCc1cccc(/C=N/NC(=O)CN2CCN(Cc3ccccc3)CC2)c1O [PAC-1] + Cc1nc(NC(=O)N2CCC[C@H]2C(N)=O)sc1-c1ccnc(C(C)(C)C(F)(F)F)c1 [Alpelisib] (partner 2 µM)
Procedure, shortened: as §1

| Cell Line | relative viability (BMX-IN-1 + Navitoclax; first compound 0.02 µM) | relative viability (BMX-IN-1 + Navitoclax; first compound 0.2 µM) | relative viability (BMX-IN-1 + Navitoclax; first compound 0.6325 µM) | relative viability (BMX-IN-1 + Navitoclax; first compound 2 µM) | relative viability (PAC-1 + Palbociclib; first compound 0.02 µM) | relative viability (PAC-1 + Palbociclib; first compound 0.06325 µM) | relative viability (PAC-1 + Palbociclib; first compound 0.2 µM) | relative viability (PAC-1 + Palbociclib; first compound 2 µM) | relative viability (PAC-1 + Decitabine; first compound 0.02 µM) | relative viability (PAC-1 + Decitabine; first compound 0.06325 µM) | relative viability (PAC-1 + Decitabine; first compound 0.2 µM) | relative viability (PAC-1 + Decitabine; first compound 2 µM) | relative viability (BMX-IN-1 + Tozasertib; first compound 0.02 µM) | relative viability (BMX-IN-1 + Tozasertib; first compound 0.2 µM) | relative viability (BMX-IN-1 + Tozasertib; first compound 0.6325 µM) | relative viability (BMX-IN-1 + Tozasertib; first compound 2 µM) | relative viability (PAC-1 + Alpelisib; first compound 0.02 µM) | relative viability (PAC-1 + Alpelisib; first compound 0.06325 µM) | relative viability (PAC-1 + Alpelisib; first compound 0.2 µM) | relative viability (PAC-1 + Alpelisib; first compound 2 µM) |
| --- | --- | --- | --- | --- | --- | --- | --- | --- | --- | --- | --- | --- | --- | --- | --- | --- | --- | --- | --- | --- |
| ChaGo-K-1 | 0.937 | 0.988 | 1.27 | 0.531 | 0.914 | 0.933 | 0.956 | 0.954 | 0.522 | 0.506 | 0.458 | 0.54 | 0.216 | 0.227 | 0.218 | 0.237 |  |  |  |  |
| EBC-1 | 0.425 | 0.341 | 0.434 | 0.329 |  |  |  |  |  |  |  |  |  |  |  |  | 0.769 | 0.808 | 0.736 | 0.809 |
| EKVX | 0.979 | 1.13 | 0.966 | 1 | 0.389 | 0.385 | 0.308 | 0.388 | 0.216 | 0.315 | 0.378 | 0.319 | 0.519 | 0.468 | 0.445 | 0.383 | 0.788 | 0.956 | 0.801 | 0.899 |
| EMC-BAC-2 | 1.41 | 1.35 | 1.08 | 1.19 | 0.55 | 0.524 | 0.519 | 0.519 | 0.924 | 0.989 | 0.895 | 1.01 | 0.286 | 0.287 | 0.289 | 0.274 | 0.72 | 0.801 | 0.737 | 0.67 |
| EPLC-272H | 1.25 | 1.22 | 1.08 | 1.18 | 0.279 | 0.28 | 0.293 | 0.268 | 0.369 | 0.39 | 0.342 | 0.324 | 0.218 | 0.222 | 0.279 | 0.245 |  | 0.96 | 0.817 | 0.764 |
| H3255 | 0.51 | 0.595 | 0.544 | 0.633 | 0.359 | 0.298 | 0.299 | 0.291 | 0.593 | 0.849 | 0.534 | 0.63 | 0.788 | 0.648 | 0.577 | 0.624 | 0.823 | 0.78 | 0.702 | 0.717 |
| HARA | 1.22 | 1.36 | 1.09 | 1.08 | 0.228 | 0.225 | 0.247 | 0.329 | 0.573 | 0.688 | 0.507 | 0.487 | 0.0824 | 0.0995 | 0.111 | 0.092 | 0.735 | 0.809 | 0.779 | 0.928 |
| HCC-15 | 0.768 | 0.726 | 0.706 | 0.73 | 0.743 | 0.747 | 0.628 | 0.689 | 0.628 | 0.685 | 0.56 | 0.599 | 0.449 | 0.53 | 0.531 | 0.398 | 0.924 | 0.831 | 0.854 | 0.851 |
| HCC-44 | 1.25 | 1.16 | 1.13 | 0.989 | 1.04 | 0.984 | 0.965 | 0.993 | 1.03 | 0.914 | 0.855 | 0.933 | 1.27 | 0.92 | 0.861 | 0.725 | 0.782 | 0.875 | 0.774 | 0.855 |
